{
  "source": "patent US10738028B2",
  "about": "“Spiro three-membered ring, spiro five-membered ring peptide deformylase inhibitor and use thereof in antibacteria and anti-tumor” (priority 2016, dated 2020)",
  "format_in_all_cases": "cell-based",
  "key": {"[1]": {"tested_on": "Enterococcus faecalis (EFA)", "assay": "MIC, two-fold agar dilution (CLSI), clinical isolates", "how_it_was_run": "(§1)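 CLSI two-fold agar dilution; MIC of test samples read per tested strain.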"}, "[2]": {"tested_on": "Enterococcus faecium (EFM)", "assay": "MIC, two-fold agar dilution (CLSI), clinical isolates", "how_it_was_run": "as §1"}, "[3]": {"tested_on": "Escherichia coli (including ESBLs, non-ESBLs)", "assay": "MIC, two-fold agar dilution (CLSI), clinical isolates", "how_it_was_run": "as §1"}, "[4]": {"tested_on": "Moraxella catarrhalis (BCA)", "assay": "MIC, two-fold agar dilution (CLSI), clinical isolates", "how_it_was_run": "as §1"}, "[5]": {"tested_on": "Streptococcus pneoumoniae (SPN)", "assay": "MIC, two-fold agar dilution (CLSI), clinical isolates", "how_it_was_run": "as §1"}, "[6]": {"tested_on": "methicillin-resistant Staphylococcus aureus (MRSA)", "assay": "MIC, two-fold agar dilution (CLSI), clinical isolates", "how_it_was_run": "as §1"}, "[7]": {"tested_on": "methicillin-resistant Staphylococcus epidermidis (MRSE)", "assay": "MIC, two-fold agar dilution (CLSI), clinical isolates", "how_it_was_run": "as §1"}, "[8]": {"tested_on": "methicillin-sensitive Staphylococcus aureus (MSSA)", "assay": "MIC, two-fold agar dilution (CLSI), clinical isolates", "how_it_was_run": "as §1"}, "[9]": {"tested_on": "methicillin-sensitive Staphylococcus epidermidis (MSSE)", "assay": "MIC, two-fold agar dilution (CLSI), clinical isolates", "how_it_was_run": "as §1"}, "[10]": {"tested_on": "HCT-116 colorectal cancer cell line", "assay": "CCK-8 proliferation inhibition", "conditions": "Homo sapiens, HCT-116, 72 h, concentration of 30 μM, 72 hours, CCK-8", "how_it_was_run": "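Cells were plated overnight at 2000 cells/well, then compound in culture medium was added at a range of final concentrations. After 72 hours in a CO2 incubator, medium was replaced with 1:10 CCK-8 solution for the read-out.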"}, "[11]": {"tested_on": "A549 lung cancer cell line", "assay": "CCK-8 proliferation inhibition", "conditions": "Homo sapiens, A549, 72 h, concentration of 30 μM", "source_text": "(§2) 2. The present invention adopts the CCK-8 method to determine the proliferation inhibition effect of the spiro three-membered ring, spiro five-membered ring peptide deformylase inhibitor as described in Examples 1-80 against colorectal cancer cells, lung cancer cells, gastric cancer cells, liver cancer cells, and the like. […] The compound having the best activity synthesized in Example 64 was further tested for its inhibitory activity against other tumor cells including T cell leukemia, acute myeloid leukemia, cervical cancer, breast cancer, prostate cancer and osteosarcoma, and the like (see Table 7).\n(§3) (1) HCT-116 colorectal cancer cell line, A549 lung cancer cell line, MGC-803 gastric cancer cell line, BEL-7402 liver cancer cell line, Jurkat T cell leukemia cell line, HL60 acute myeloid leukemia cell line, Hela cervical cancer cell line, MCF-7 breast cancer cell line, PC3 prostate cancer cell line and SAOS-2 osteosarcoma cell line were made into single cell suspension, 180 μL of which was inoculated into 96-well culture plate, which was cultured overnight in CO2 incubator (37° C., 5% CO2, 95% air).\n(§4) (2) Each of the spiro three-membered ring, spiro five membered ring peptide deformylase inhibitors was dissolved in DMSO, and was further formulated into drug solution with required different final concentration using corresponding cell culture medium. The drug solutions were added to the above cells respectively (20 μL/well), with the control group added with 1‰ DMSO, and cultured in a CO2 incubator for 72 hours.\n(§5) (3) After incubation for 72 hours, the culture solution was decanted, and 100 μL of 1:10 diluted CCK-8 solution was added.\n(§6) Wherein, in step (1), the concentration of the single cell suspension was 2000 cells/well.\n(§7) Wherein, in step (2), HCT-116 cells were cultured in McCoy's 5A medium (containing 10% newborn bovine serum, 1% double antibody); A549 and PC3 cells were cultured in F12 medium (containing 10% newborn bovine serum, 1% double antibody); MGC-803, BEL-7402, SAOS-2, Jurkat and HL60 cells were cultured in 1640 medium (containing 10% newborn bovine serum, 1% double antibody); and MCF-7 and Hela cells were cultured in DMEM high glucose medium (containing 10% newborn bovine serum, 1% double antibody)."}, "[12]": {"tested_on": "BEL-7402 liver cancer cell line", "assay": "CCK-8 proliferation inhibition", "conditions": "Homo sapiens, Bel-7402, 72 h, concentration of 30 μM", "source_text": "as §2, §3, §4, §5, §6, §7"}, "[13]": {"tested_on": "MGC-803 gastric cancer cell line", "assay": "CCK-8 proliferation inhibition", "conditions": "Homo sapiens, MGC-803, 72 h, concentration of 30 μM", "source_text": "as §2, §3, §4, §5, §6, §7"}},
  "note": "Read-outs that look alike come from different tables or passages of the source.",
  "data": [
    {"smiles": "O=CN(O)C[C@@H](CC1CCCC1)C(=O)N1CC2(CC2)C[C@H]1C(=O)NC1CC1", "note": "[Example 32, (S)-5-((R)-3-cyclopentyl-2-((N-hydroxyformamido)methyl)propionyl)-N-cyclopropyl-5-azaspiro[2.4]heptane-6-carboxamide]", "values": [
      {"measurement": "MIC (anti-bacterial activity)", "setting": "[1]; strain EFA 15-1", "value": 8, "unit": "µg/mL"},
      {"measurement": "MIC (anti-bacterial activity)", "setting": "[1]; strain EFA 15-2", "value": 8, "unit": "µg/mL"},
      {"measurement": "MIC (anti-bacterial activity)", "setting": "[1]; strain EFA 15-3", "value": 8, "unit": "µg/mL"},
      {"measurement": "MIC (anti-bacterial activity)", "setting": "[1]; strain EFA 15-4", "value": 8, "unit": "µg/mL"},
      {"measurement": "MIC (anti-bacterial activity)", "setting": "[1]; strain EFA 15-5", "value": 8, "unit": "µg/mL"},
      {"measurement": "MIC (anti-bacterial activity)", "setting": "[1]; strain EFA 15-6", "value": 8, "unit": "µg/mL"},
      {"measurement": "MIC (anti-bacterial activity)", "setting": "[1]; strain EFA 15-9", "value": 8, "unit": "µg/mL"},
      {"measurement": "MIC (anti-bacterial activity)", "setting": "[2]; strain EFM 15-1", "value": 4, "unit": "µg/mL"},
      {"measurement": "MIC (anti-bacterial activity)", "setting": "[2]; strain EFM 15-2", "value": 4, "unit": "µg/mL"},
      {"measurement": "MIC (anti-bacterial activity)", "setting": "[2]; strain EFM 15-3", "value": 1, "unit": "µg/mL"},
      {"measurement": "MIC (anti-bacterial activity)", "setting": "[2]; strain EFM 15-4", "value": 4, "unit": "µg/mL"},
      {"measurement": "MIC (anti-bacterial activity)", "setting": "[2]; strain EFM 15-5", "value": 4, "unit": "µg/mL"},
      {"measurement": "MIC (anti-bacterial activity)", "setting": "[2]; strain EFM 15-6", "value": 4, "unit": "µg/mL"},
      {"measurement": "MIC (anti-bacterial activity)", "setting": "[3]; strain ECO+ 15-1", "value": 32, "unit": "µg/mL"},
      {"measurement": "MIC (anti-bacterial activity)", "setting": "[3]; strain ECO+ 15-2", "value": "> 32", "unit": "µg/mL"},
      {"measurement": "MIC (anti-bacterial activity)", "setting": "[3]; strain ECO+ 15-3", "value": "> 32", "unit": "µg/mL"},
      {"measurement": "MIC (anti-bacterial activity)", "setting": "[3]; strain ECO+ 15-4", "value": 32, "unit": "µg/mL"},
      {"measurement": "MIC (anti-bacterial activity)", "setting": "[3]; strain ECO− 15-1", "value": 32, "unit": "µg/mL"},
      {"measurement": "MIC (anti-bacterial activity)", "setting": "[3]; strain ECO− 15-2", "value": "> 32", "unit": "µg/mL"},
      {"measurement": "MIC (anti-bacterial activity)", "setting": "[3]; strain ECO− 15-3", "value": "> 32", "unit": "µg/mL"},
      {"measurement": "MIC (anti-bacterial activity)", "setting": "[3]; strain ECO− 15-4", "value": "> 32", "unit": "µg/mL"},
      {"measurement": "Anti-bacterial activity (MIC), strain BCA 14-10", "setting": "[4]; clinical isolate BCA 14-10", "value": 1, "unit": "µg/mL"},
      {"measurement": "MIC (anti-bacterial activity)", "setting": "[4]; strain BCA 14-1", "value": 4, "unit": "µg/mL"},
      {"measurement": "MIC (anti-bacterial activity)", "setting": "[4]; strain BCA 14-4", "value": 4, "unit": "µg/mL"},
      {"measurement": "MIC (anti-bacterial activity)", "setting": "[4]; strain BCA 14-5", "value": 2, "unit": "µg/mL"},
      {"measurement": "MIC (anti-bacterial activity)", "setting": "[4]; strain BCA 14-6", "value": 8, "unit": "µg/mL"},
      {"measurement": "MIC (anti-bacterial activity)", "setting": "[4]; strain BCA 14-7", "value": 1, "unit": "µg/mL"},
      {"measurement": "MIC (anti-bacterial activity)", "setting": "[4]; strain BCA 14-8", "value": 8, "unit": "µg/mL"},
      {"measurement": "MIC (anti-bacterial activity)", "setting": "[5]; strain SPN 16-2", "value": 1, "unit": "µg/mL"},
      {"measurement": "MIC (anti-bacterial activity)", "setting": "[5]; strain SPN 16-4", "value": 8, "unit": "µg/mL"},
      {"measurement": "MIC (anti-bacterial activity)", "setting": "[6]; strain MRSA 15-1", "value": 1, "unit": "µg/mL"},
      {"measurement": "MIC (anti-bacterial activity)", "setting": "[6]; strain MRSA 15-2", "value": 1, "unit": "µg/mL"},
      {"measurement": "MIC (anti-bacterial activity)", "setting": "[6]; strain MRSA 15-3", "value": 1, "unit": "µg/mL"},
      {"measurement": "MIC (anti-bacterial activity)", "setting": "[6]; strain MRSA 15-4", "value": 1, "unit": "µg/mL"},
      {"measurement": "MIC (anti-bacterial activity)", "setting": "[7]; strain MRSE 15-1", "value": 1, "unit": "µg/mL"},
      {"measurement": "MIC (anti-bacterial activity)", "setting": "[7]; strain MRSE 15-2", "value": 2, "unit": "µg/mL"},
      {"measurement": "MIC (anti-bacterial activity)", "setting": "[7]; strain MRSE 15-3", "value": 8, "unit": "µg/mL"},
      {"measurement": "MIC (anti-bacterial activity)", "setting": "[7]; strain MRSE 15-7", "value": 8, "unit": "µg/mL"},
      {"measurement": "MIC (anti-bacterial activity)", "setting": "[8]; strain MSSA 15-3", "value": 2, "unit": "µg/mL"},
      {"measurement": "MIC (anti-bacterial activity)", "setting": "[8]; strain MSSA 15-4", "value": 1, "unit": "µg/mL"},
      {"measurement": "MIC (anti-bacterial activity)", "setting": "[8]; strain MSSA 15-5", "value": 1, "unit": "µg/mL"},
      {"measurement": "MIC (anti-bacterial activity)", "setting": "[8]; strain MSSA 15-6", "value": 2, "unit": "µg/mL"},
      {"measurement": "MIC (anti-bacterial activity)", "setting": "[9]; strain MSSE 15-3", "value": 2, "unit": "µg/mL"},
      {"measurement": "MIC (anti-bacterial activity)", "setting": "[9]; strain MSSE 15-4", "value": 2, "unit": "µg/mL"},
      {"measurement": "MIC (anti-bacterial activity)", "setting": "[9]; strain MSSE 15-5", "value": 2, "unit": "µg/mL"},
      {"measurement": "MIC (anti-bacterial activity)", "setting": "[9]; strain MSSE 15-6", "value": 2, "unit": "µg/mL"},
      {"measurement": "inhibition at 30 µM", "setting": "[10]; Table 5, read-out: Inhibition of proliferation, Colorectal cancer HCT116", "value": "≥ 30", "unit": "%"},
      {"measurement": "inhibition at 30 µM", "setting": "[10]; read-out: HCT116 inhibition rate/%", "value": 30, "unit": "%"},
      {"measurement": "inhibition at 30 µM", "setting": "[11]", "value": 14, "unit": "%"},
      {"measurement": "inhibition at 30 µM", "setting": "[12]", "value": 46, "unit": "%"},
      {"measurement": "inhibition at 30 µM", "setting": "[13]", "value": 14, "unit": "%"}
    ]}
  ]
}
